Assay: UV/VIS-near-IR absorption of the dyes
Assay type: physicochemical
Settings: for ε (CH2Cl2): molar extinction coefficient in CH2Cl2
Description: Synthetic Methods. All reactions were performed open to air unless otherwise noted. Concentration in vacuo was performed on a rotary evaporator. NMR spectra were recorded at 300 or 500 MHz for ^1H and at 75.5 MHz for ^13C with residual solvent signal as internal standard. UV/VIS-near-IR spectra were recorded in quartz cuvettes with a 1-cm path length. Melting points were determined with a capillary melting point apparatus and are uncorrected. […] Pyranones 16b-16d are known compounds (J. Heterocycl. Chem. 1999, 36, 707-717). The synthesis of thiopyranone 16a and 4-methylpyrylium salt 15c is shown in Scheme 2. 4-Methylpyrylium salts 15a, 15d, and 15e have been reported previously in the literature (J. Org. Chem. 1982, 47, 5235-5239; Organometallics 1988, 7, 1131-1147; Dyes Pigm. 2000, 45, 1-7).

[1] = Table 2, Example 2 dyes, CH2Cl2

Row | Compound | λmax (CH2Cl2) (absorption maximum in CH2Cl2) [nm] | ε (CH2Cl2) [M⁻¹ cm⁻¹] | Log (ε) (Table 2, Example 2 dyes) | λmax (CH2Cl2) [1] [nm]
1 | C(=Cc1cc(-c2ccccc2)[se+]c(-c2ccccc2)c1)C=C1C=C(c2ccccc2)SC(c2ccccc2)=C1.F[P-](F)(F)(F)(F)F [Dye 10, 4-(3-(2,6-diphenyl-4H-thiopyran-4-ylidene)prop-1-enyl)-2,6-diphenylselenopyrylium hexafluorophosphate] | 784 | 200000 |  | 
2 | C(=C1C=C(c2ccccc2)[Se]C(c2ccccc2)=C1)c1cc(-c2cccs2)[se+]c(-c2cccs2)c1.F[P-](F)(F)(F)(F)F [Dye 3, 4-((2,6-diphenyl-4H-selenopyran-4-ylidene)methyl)-2,6-di(thiophen-2-yl)selenopyrylium hexafluorophosphate] | 699 | 150000 |  | 
3 | C(=Cc1cc(-c2cccs2)[s+]c(-c2cccs2)c1)C=C1C=C(c2cccs2)SC(c2cccs2)=C1.F[P-](F)(F)(F)(F)F [Dye 13, 4-(3-(2,6-dithiophen-2-yl-4H-thiopyran-4-ylidene)prop-1-enyl)-(2,6-dithiophen-2-yl)thiopyrylium hexafluorophosphate] | 813 | 280000 |  | 
4 | C(=Cc1cc(-c2ccccc2)[s+]c(-c2ccccc2)c1)C=C1C=C(c2cccs2)SC(c2cccs2)=C1.F[P-](F)(F)(F)(F)F [Dye 2b, 4-(3-(2,6-dithiophen-2-yl-4H-thiopyran-4-ylidene)prop-1-enyl)-2,6-diphenylthiopyrylium hexafluorophosphate] |  |  | 5.34 | 789
5 | C(=C1C=C(c2cccs2)SC(c2cccs2)=C1)c1cc(-c2cccs2)[s+]c(-c2cccs2)c1.F[P-](F)(F)(F)(F)F [Dye 4, 4-((2,6-di(thiophen-2-yl)-4H-thiopyran-4-ylidene)methyl)-2,6-di(thiophen-2-yl)thiopyrylium hexafluorophosphate] | 676 | 120000 |  | 
6 | C(=Cc1cc(-c2cccs2)[s+]c(-c2cccs2)c1)C=C1C=C(c2cccs2)SC(c2cccs2)=C1.F[P-](F)(F)(F)(F)F [Dye 3, 4-(3-(2,6-dithiophen-2-yl-4H-thiopyran-4-ylidene)prop-1-enyl)-(2,6-dithiophen-2-yl)thiopyrylium hexafluorophosphate] |  |  | 5.45 | 813
7 | C(=Cc1cc(-c2ccccc2)[se+]c(-c2ccccc2)c1)C=C1C=C(c2cccs2)SC(c2cccs2)=C1.F[P-](F)(F)(F)(F)F [Dye 11, 4-(3-(2,6-dithiophen-2-yl-4H-thiopyran-4-ylidene)prop-1-enyl)-2,6-diphenylselenopyrylium hexafluorophosphate] | 810 | 250000 |  | 
8 | C(=Cc1cc(-c2ccc[se]2)[s+]c(-c2ccc[se]2)c1)C=C1C=C(c2ccc[se]2)SC(c2ccc[se]2)=C1.F[P-](F)(F)(F)(F)F [Dye 14, 4-(3-(2,6-di(selenophen-2-yl)-4H-thiopyran-4-ylidene)prop-1-en-1-yl)-2,6-di(selenophen-2-yl)thiopyrylium hexafluorophosphate] | 826 | 230000 |  | 
9 | C1=C(c2ccccc2)Sc2ccccc2/C1=C/C=C/C1=CC(c2ccccc2)=[SH]c2ccccc21 [Dye 15, 2-phenyl-4-((E)-3-((E)-2-phenyl-4H-thiochromen-4-ylidene)prop-1-en-1-yl)thiochromenylium hexafluorophosphate] | 789 | 150000 |  | 
10 | C(=Cc1cc(-c2ccccc2)[s+]c(-c2ccccc2)c1)C=C1C=C(c2cccs2)SC(c2cccs2)=C1.F[P-](F)(F)(F)(F)F [Dye 12, 4-(3-(2,6-dithiophen-2-yl-4H-thiopyran-4-ylidene)prop-1-enyl)-2,6-diphenylthiopyrylium hexafluorophosphate] | 789 | 220000 |  | 
11 | C(=C1C=C(c2ccccc2)SC(c2ccccc2)=C1)c1cc(-c2ccc[se]2)[s+]c(-c2ccc[se]2)c1.F[P-](F)(F)(F)(F)F [Dye 7, 4-((2,6-diphenyl-4H-thiopyran-4-ylidene)methyl)-2,6-di(selenophen-2-yl)thiopyrylium hexafluorophosphate] | 659 | 140000 |  | 
12 | C1=C(c2cccs2)[Se]c2ccccc2/C1=C/C1=CC(c2cccs2)=[SeH]c2ccccc21 [Dye 17, 2-(thiophene-2-yl)-4-((2-(thiophen-2-yl)-4H selenobenzopyran-4-ylidene)methyl)selenobenzopyrylium hexafluorophosphate] | 786 | 78000 |  | 
13 | C(=C1C=C(c2ccc[se]2)SC(c2ccc[se]2)=C1)c1cc(-c2ccc[se]2)[s+]c(-c2ccc[se]2)c1.F[P-](F)(F)(F)(F)F [Dye 8, 4-((2,6-di(selenophen-2-yl)-4H-thiopyran-4-ylidene)methyl)-2,6-di(selenophen-2-yl)thiopyrylium hexafluorophosphate] | 687 | 110000 |  | 
14 | C(=Cc1cc(-c2ccccc2)[se+]c(-c2ccccc2)c1)C=C1C=C(c2cccs2)SC(c2cccs2)=C1.F[P-](F)(F)(F)(F)F [Dye 2a, 4-(3-(2,6-dithiophen-2-yl-4H-thiopyran-4-ylidene)prop-1-enyl)-2,6-diphenylselenopyrylium hexafluorophosphate] |  |  | 5.40 | 810
15 | C(=C1C=C(c2cccs2)SC(c2cccs2)=C1)c1cc(-c2cccs2)[se+]c(-c2cccs2)c1.F[P-](F)(F)(F)(F)F [Dye 5, 4-((2,6-di(thiophen-2-yl)-4H-thiopyran-4-ylidene)methyl)-2,6-di(thiophen-2-yl)selenopyrylium hexafluorophosphate] | 698 | 110000 |  | 
16 | C(/C=C/C=C/c1cc(-c2ccc[se]2)[se+]c(-c2ccc[se]2)c1)=C1C=C(c2ccc[se]2)[Se]C(c2ccc[se]2)=C1 [Dye 19, 4-((1E,3E)-5-(2,6-di(selenophen-2-yl)-4H-selenopyran-4-ylidene)penta-1,3-dien-1-yl)-2,6-di(selenophen-2-yl)selenopyrylium] | 1001 |  |  | 
17 | C(=C1C=C(c2ccccc2)[Se]C(c2ccccc2)=C1)c1cc(-c2cccs2)[s+]c(-c2cccs2)c1.F[P-](F)(F)(F)(F)F [Dye 2, 4-((2,6-diphenyl-4H-selenopyran-4-ylidene)methyl)-2,6-di(thiophen-2-yl)thiopyrylium hexafluorophosphate] | 676 | 130000 |  | 
18 | C(=Cc1cc(-c2ccccc2)[se+]c(-c2ccccc2)c1)C=C1C=C(c2ccccc2)[Se]C(c2ccccc2)=C1.F[P-](F)(F)(F)(F)F [Dye 9, 4-(3-(2,6-diphenyl-4H-selenopyran-4-ylidene)prop-1-enyl)-2,6-diphenylselenopyrylium hexafluorophosphate] | 806 | 250000 |  | 
19 | C(/C=C/C=C/c1cc(-c2cccs2)[s+]c(-c2cccs2)c1)=C1C=C(c2cccs2)SC(c2cccs2)=C1 [Dye 18, 4-((1E,3E)-5-(2,6-di(thiophen-2-yl)-4H-thiopyran-4-ylidene)penta-1,3-dien-1-yl)-2,6-di(thiophen-2-yl)thiopyrylium] | 943 |  |  | 
